In US20220218852A1, “NOVEL RADIOLABELLED CXCR4-TARGETING COMPOUNDS FOR DIAGNOSIS AND THERAPY” (PROVINCIAL HEALTH SERVICES AUTHORITY, priority 2019, published 2022):
Read-outs that look alike come from different tables or passages of the source. Positions of bridges follow the written chain, without caps; N, C: chain ends. Non-standard residues stand in square brackets, D forms with d. Residues, ends and D or L forms follow the SMILES beside them. Groups on a side chain read outwards from the residue. *: point of attachment. DOTA = O=C(O)CN1CCN(CC(=O)O)CCN(CC(=O)*)CCN(CC(=O)O)CC1; 2Nal = N[C@@H](Cc1ccc2ccccc2c1)C(=O)O; Lys(iPr) = CC(C)NCCCC[C@H](N)C(=O)O

What was measured:
[1] = test system: Z138 mantle cell lymphoma xenografts; assay: Biodistribution in Z138 tumor-bearing mice; format: in vivo
Protocol: (§1) For Daudi, Z138, GRANTA519 and Jeko1 xenografts, male NOD.Cg-Rag1^tm1MomII2rg^tm1Wjl/SzJ (NRG) mice were subcutaneously inoculated on the left flank with 5×10^6 cells (100 μL; 1:1 ratio of PBS/Matrigel) and tumors were grown to a size of 200-500 mm^3. For PC-3 xenografts, male NOD.Cg-Rag1^tm1MomII2rg^tm1Wjl/SzJ (NRG) mice were subcutaneously inoculated on the left flank with 5×10^6 PC-3 cells (100 μL; 1:1 ratio of PBS/Matrigel) and tumors were grown to a size of 200-400 mm^3.
(§2) The mice were euthanized via CO2 inhalation while anesthetized with isoflurane. Tissues were harvested, washed in PBS, blotted dry, weighed, and measured on a Hidex AMG Automatic Gamma Counter.

[2] = Biodistribution in Z138 tumor-bearing mice; format: in vivo; details: male, mouse, iv, total radioactivity
Protocol: as §1, §2

[3] = NOD.Cg-Rag1^tm1MomII2rg^tm1Wjl/SzJ (NRG), blood, read-out: Biodistribution Blood
[4] = NOD.Cg-Rag1^tm1MomII2rg^tm1Wjl/SzJ (NRG), bone, read-out: Biodistribution Bone
[5] = NOD.Cg-Rag1^tm1MomII2rg^tm1Wjl/SzJ (NRG), brain, read-out: Biodistribution Brain
[6] = NOD.Cg-Rag1^tm1MomII2rg^tm1Wjl/SzJ (NRG), fat, read-out: Biodistribution Fat
[7] = NOD.Cg-Rag1^tm1MomII2rg^tm1Wjl/SzJ (NRG), intestine, read-out: Biodistribution Intestine
[8] = NOD.Cg-Rag1^tm1MomII2rg^tm1Wjl/SzJ (NRG), stomach, read-out: Biodistribution Stomach
[9] = NOD.Cg-Rag1^tm1MomII2rg^tm1Wjl/SzJ (NRG), testes, read-out: Biodistribution Testes
[10] = NOD.Cg-Rag1^tm1MomII2rg^tm1Wjl/SzJ (NRG), tumour (Z138 xenograft), read-out: Biodistribution Z138 (tumour)
[11] = NOD.Cg-Rag1tm1Mom Il2rgtm1Wjl/SzJ (NRG), adrenals, read-out: Biodistribution Adrenals
[12] = NOD.Cg-Rag1tm1Mom Il2rgtm1Wjl/SzJ (NRG), heart, read-out: Biodistribution Heart
[13] = NOD.Cg-Rag1tm1Mom Il2rgtm1Wjl/SzJ (NRG), kidney, read-out: Biodistribution Kidney
[14] = NOD.Cg-Rag1tm1Mom Il2rgtm1Wjl/SzJ (NRG), liver, read-out: Biodistribution Liver
[15] = NOD.Cg-Rag1tm1Mom Il2rgtm1Wjl/SzJ (NRG), lung, read-out: Biodistribution Lung
[16] = NOD.Cg-Rag1tm1Mom Il2rgtm1Wjl/SzJ (NRG), muscle, read-out: Biodistribution Muscle
[17] = NOD.Cg-Rag1tm1Mom Il2rgtm1Wjl/SzJ (NRG), pancreas, read-out: Biodistribution Pancreas

CC(C)NCCCC[C@@H]1NC(=O)[C@H](Cc2ccc(O)cc2)NC(=O)[C@H](Cc2ccccc2)NC(=O)CC[C@H](C(=O)N[C@@H](CCCCNC(C)C)C(=O)N[C@@H](CCCCNC(=O)[C@H](CCC(=O)O)NC(=O)[C@H](CCC(=O)O)NC(=O)[C@H](CCC(=O)O)NC(=O)CN2CCN(CC(=O)O)CCN(CC(=O)O)CCN(CC(=O)O)CC2)C(N)=O)NC(=O)CNC(=O)[C@H](Cc2ccc3ccccc3c2)NC(=O)[C@@H](CCCNC(=N)N)NC1=O [[^177Lu]Lu-BL02, metal not drawn] (FY[Lys(iPr)][dR][2Nal]G[dE][Lys(iPr)]K([Glu-Glu-Glu-DOTA])-NH2; lactam N-7)
Ratio Tumour:Blood ([1]; 1 h): 38.98
Ratio Tumour:Bone ([1]; 1 h): 74.82
Ratio Tumour:Liver ([1]; 1 h): 18.53
Ratio Tumour:Lung ([1]; 1 h): 21.08
Ratio Tumour:Muscle ([1]; 1 h): 166.59
Ratio Tumour:Spleen ([1]; 1 h): 33.05
Ratio Tumour:Blood ([1]; 1 h blocked): 2.74
Ratio Tumour:Bone ([1]; 1 h blocked): 9.53
Ratio Tumour:Liver ([1]; 1 h blocked): 3.84
Ratio Tumour:Lung ([1]; 1 h blocked): 2.75
Ratio Tumour:Muscle ([1]; 1 h blocked): 13.22
Ratio Tumour:Spleen ([1]; 1 h blocked): 6.87
Ratio Tumour:Blood ([1]; 4 h): 627.62
Ratio Tumour:Bone ([1]; 4 h): 145.11
Ratio Tumour:Liver ([1]; 4 h): 16.93
Ratio Tumour:Lung ([1]; 4 h): 60.62
Ratio Tumour:Muscle ([1]; 4 h): 503.09
Ratio Tumour:Spleen ([1]; 4 h): 49.43
Ratio Tumour:Blood ([1]; 24 h): 873.49
Ratio Tumour:Bone ([1]; 24 h): 109.48
Ratio Tumour:Liver ([1]; 24 h): 12.51
Ratio Tumour:Lung ([1]; 24 h): 52.72
Ratio Tumour:Muscle ([1]; 24 h): 463.22
Ratio Tumour:Spleen ([1]; 24 h): 31.90
Ratio Tumour:Blood ([1]; 72 h): 613.24
Ratio Tumour:Bone ([1]; 72 h): 68.39
Ratio Tumour:Liver ([1]; 72 h): 8.32
Ratio Tumour:Lung ([1]; 72 h): 21.59
Ratio Tumour:Muscle ([1]; 72 h): 358.55
Ratio Tumour:Spleen ([1]; 72 h): 13.86
tissue uptake at 1 h ([2]; NOD.Cg-Rag1^tm1MomII2rg^tm1Wjl/SzJ (NRG), blood, 1 h, read-out: Biodistribution Blood): 0.44 %ID/g
tissue uptake at 4 h [2, 3]: 0.03 %ID/g
tissue uptake at 24 h [2, 3]: 0.01 %ID/g
tissue uptake at 72 h [2, 3]: 0.007 %ID/g
tissue uptake at 1 h ([2]; NOD.Cg-Rag1^tm1MomII2rg^tm1Wjl/SzJ (NRG), blood, with LY2510924 7.5 μg i.p. 15 min before radiotracer, 1 h blocked, read-out: Biodistribution Blood): 2.06 %ID/g
tissue uptake at 1 h ([2]; NOD.Cg-Rag1^tm1MomII2rg^tm1Wjl/SzJ (NRG), bone, 1 h, read-out: Biodistribution Bone): 0.25 %ID/g
tissue uptake at 4 h [2, 4]: 0.11 %ID/g
tissue uptake at 24 h [2, 4]: 0.085 %ID/g
tissue uptake at 72 h [2, 4]: 0.053 %ID/g
tissue uptake at 1 h ([2]; NOD.Cg-Rag1^tm1MomII2rg^tm1Wjl/SzJ (NRG), bone, 1 h blocked, read-out: Biodistribution Bone): 0.49 %ID/g
tissue uptake at 1 h ([2]; NOD.Cg-Rag1^tm1MomII2rg^tm1Wjl/SzJ (NRG), brain, 1 h, read-out: Biodistribution Brain): 0.02 %ID/g
tissue uptake at 1 h ([2]; NOD.Cg-Rag1^tm1MomII2rg^tm1Wjl/SzJ (NRG), brain, 1 h blocked, read-out: Biodistribution Brain): 0.04 %ID/g
tissue uptake at 4 h [2, 5]: 0.01 %ID/g
tissue uptake at 24 h [2, 5]: 0.003 %ID/g
tissue uptake at 72 h [2, 5]: 0.001 %ID/g
tissue uptake at 1 h ([2]; NOD.Cg-Rag1^tm1MomII2rg^tm1Wjl/SzJ (NRG), fat, 1 h, read-out: Biodistribution Fat): 0.07 %ID/g
tissue uptake at 4 h [2, 6]: 0.03 %ID/g
tissue uptake at 24 h [2, 6]: 0.011 %ID/g
tissue uptake at 72 h [2, 6]: 0.008 %ID/g
tissue uptake at 1 h ([2]; NOD.Cg-Rag1^tm1MomII2rg^tm1Wjl/SzJ (NRG), fat, with LY2510924 7.5 μg i.p. 15 min before radiotracer, 1 h blocked, read-out: Biodistribution Fat): 0.19 %ID/g
tissue uptake at 1 h ([2]; NOD.Cg-Rag1^tm1MomII2rg^tm1Wjl/SzJ (NRG), intestine, 1 h, read-out: Biodistribution Intestine): 0.27 %ID/g
tissue uptake at 1 h ([2]; NOD.Cg-Rag1^tm1MomII2rg^tm1Wjl/SzJ (NRG), intestine, 1 h blocked, read-out: Biodistribution Intestine): 0.75 %ID/g
tissue uptake at 4 h [2, 7]: 0.09 %ID/g
tissue uptake at 24 h [2, 7]: 0.126 %ID/g
tissue uptake at 72 h [2, 7]: 0.023 %ID/g
tissue uptake at 1 h ([2]; NOD.Cg-Rag1^tm1MomII2rg^tm1Wjl/SzJ (NRG), stomach, 1 h, read-out: Biodistribution Stomach): 0.12 %ID/g
tissue uptake at 1 h ([2]; NOD.Cg-Rag1^tm1MomII2rg^tm1Wjl/SzJ (NRG), stomach, 1 h blocked, read-out: Biodistribution Stomach): 0.2 %ID/g
tissue uptake at 4 h [2, 8]: 0.07 %ID/g
tissue uptake at 24 h [2, 8]: 0.052 %ID/g
tissue uptake at 72 h [2, 8]: 0.022 %ID/g
tissue uptake at 1 h ([2]; NOD.Cg-Rag1^tm1MomII2rg^tm1Wjl/SzJ (NRG), testes, 1 h, read-out: Biodistribution Testes): 0.18 %ID/g
tissue uptake at 4 h [2, 9]: 0.04 %ID/g
tissue uptake at 24 h [2, 9]: 0.032 %ID/g
tissue uptake at 72 h [2, 9]: 0.029 %ID/g
tissue uptake at 1 h ([2]; NOD.Cg-Rag1^tm1MomII2rg^tm1Wjl/SzJ (NRG), testes, with LY2510924 7.5 μg i.p. 15 min before radiotracer, 1 h blocked, read-out: Biodistribution Testes): 0.39 %ID/g
tissue uptake at 1 h ([2]; NOD.Cg-Rag1^tm1MomII2rg^tm1Wjl/SzJ (NRG), tumour (Z138 xenograft), 1 h, read-out: Biodistribution Z138 (tumour)): 17.2 %ID/g
tissue uptake at 1 h ([2]; NOD.Cg-Rag1^tm1MomII2rg^tm1Wjl/SzJ (NRG), tumour (Z138 xenograft), 1 h blocked, read-out: Biodistribution Z138 (tumour)): 3.75 %ID/g
tissue uptake at 4 h [2, 10]: 15.6 %ID/g
tissue uptake at 24 h [2, 10]: 8.79 %ID/g
tissue uptake at 72 h [2, 10]: 3.57 %ID/g
tissue uptake at 1 h ([2]; NOD.Cg-Rag1tm1Mom Il2rgtm1Wjl/SzJ (NRG), adrenals, 1 h, read-out: Biodistribution Adrenals): 0.46 %ID/g
tissue uptake at 1 h ([2]; NOD.Cg-Rag1tm1Mom Il2rgtm1Wjl/SzJ (NRG), adrenals, 1 h blocked, read-out: Biodistribution Adrenals): 0.47 %ID/g
tissue uptake at 4 h [2, 11]: 0.13 %ID/g
tissue uptake at 24 h [2, 11]: 0.117 %ID/g
tissue uptake at 72 h [2, 11]: 0.073 %ID/g
tissue uptake at 1 h ([2]; NOD.Cg-Rag1tm1Mom Il2rgtm1Wjl/SzJ (NRG), heart, 1 h, read-out: Biodistribution Heart): 0.18 %ID/g
tissue uptake at 1 h ([2]; NOD.Cg-Rag1tm1Mom Il2rgtm1Wjl/SzJ (NRG), heart, 1 h blocked, read-out: Biodistribution Heart): 0.46 %ID/g
tissue uptake at 4 h [2, 12]: 0.05 %ID/g
tissue uptake at 24 h [2, 12]: 0.035 %ID/g
tissue uptake at 72 h [2, 12]: 0.022 %ID/g
tissue uptake at 1 h ([2]; NOD.Cg-Rag1tm1Mom Il2rgtm1Wjl/SzJ (NRG), kidney, 1 h, read-out: Biodistribution Kidney): 3.87 %ID/g
tissue uptake at 1 h ([2]; NOD.Cg-Rag1tm1Mom Il2rgtm1Wjl/SzJ (NRG), kidney, 1 h blocked, read-out: Biodistribution Kidney): 10.9 %ID/g
tissue uptake at 4 h [2, 13]: 3.27 %ID/g
tissue uptake at 24 h [2, 13]: 1.43 %ID/g
tissue uptake at 72 h [2, 13]: 0.56 %ID/g
tissue uptake at 1 h ([2]; NOD.Cg-Rag1tm1Mom Il2rgtm1Wjl/SzJ (NRG), liver, 1 h, read-out: Biodistribution Liver): 0.93 %ID/g
tissue uptake at 1 h ([2]; NOD.Cg-Rag1tm1Mom Il2rgtm1Wjl/SzJ (NRG), liver, 1 h blocked, read-out: Biodistribution Liver): 0.99 %ID/g
tissue uptake at 4 h [2, 14]: 0.92 %ID/g
tissue uptake at 24 h [2, 14]: 0.703 %ID/g
tissue uptake at 72 h [2, 14]: 0.436 %ID/g
tissue uptake at 1 h ([2]; NOD.Cg-Rag1tm1Mom Il2rgtm1Wjl/SzJ (NRG), lung, 1 h, read-out: Biodistribution Lung): 0.83 %ID/g
tissue uptake at 1 h ([2]; NOD.Cg-Rag1tm1Mom Il2rgtm1Wjl/SzJ (NRG), lung, 1 h blocked, read-out: Biodistribution Lung): 1.57 %ID/g
tissue uptake at 4 h [2, 15]: 0.26 %ID/g
tissue uptake at 24 h [2, 15]: 0.176 %ID/g
tissue uptake at 72 h [2, 15]: 0.184 %ID/g
tissue uptake at 1 h ([2]; NOD.Cg-Rag1tm1Mom Il2rgtm1Wjl/SzJ (NRG), muscle, 1 h, read-out: Biodistribution Muscle): 0.1 %ID/g
tissue uptake at 1 h ([2]; NOD.Cg-Rag1tm1Mom Il2rgtm1Wjl/SzJ (NRG), muscle, 1 h blocked, read-out: Biodistribution Muscle): 0.45 %ID/g
tissue uptake at 4 h [2, 16]: 0.03 %ID/g
tissue uptake at 24 h [2, 16]: 0.019 %ID/g
tissue uptake at 72 h [2, 16]: 0.01 %ID/g
tissue uptake at 1 h ([2]; NOD.Cg-Rag1tm1Mom Il2rgtm1Wjl/SzJ (NRG), pancreas, 1 h, read-out: Biodistribution Pancreas): 0.14 %ID/g
tissue uptake at 1 h ([2]; NOD.Cg-Rag1tm1Mom Il2rgtm1Wjl/SzJ (NRG), pancreas, 1 h blocked, read-out: Biodistribution Pancreas): 0.31 %ID/g
tissue uptake at 4 h [2, 17]: 0.04 %ID/g
tissue uptake at 24 h [2, 17]: 0.034 %ID/g
tissue uptake at 72 h [2, 17]: 0.016 %ID/g
